Reference: patent publication US5747461A, “Synergistic administration of cyclosporine and fructose diphosphate” (priority 1994, dated 1998)
“And” between values parts separate entries of the source, which are not always exact repeats. Identical values can stand only once.

What was measured:
[1] = tested on: ischemically stored kidneys; experiment: Oxygen consumption after hypothermic ischemic storage, kidney; parameters: species or system rat; conditions: kidneys n=11; FDP 1 mg/ml in storage solution; 16 to 20 hours storage
Experimental: (§1) Sprague Dawley rats (150-180 gm/body weight) were anesthetized with Ketamine 35 mg/kg. The liver, kidney and heart were excised and placed in 50 ml of a standard cardioplegia solution sold under the trademark ISOLYTE (which contained Na^+ -41 mEq/L, K^+ -16 mEq/L, Ca^++ -5 mEq/L, Mg^++ 3 mEq/L, Cl^- -40 mEq/L, acetate 24 mEq/L with 5% Dextrose), precooled to 4° C. To half of the storage containers, 1 mg/ml of 10% FDP was added; to the rest of the containers, a similar amount of glucose was added. The containers were placed on ice in a refrigerator. After storage for 16 to 20 hours, the organs were weighed and placed in a metabolic chamber for determination of oxygen consumption,using a Clark polarographic electrode. The total volume of the chamber was 10 ml and the composition of the medium was 8 ml phosphate buffered saline (PBS Dulbecco, Mg^++ and Ca^++ free) and 2 cc of Dextrose at a temperature of 36°±0.2° C. The organ was placed in the chamber and 100% oxygen was bubbled for 45 sec. The partial pressure of the dissolved oxygen was usually 480-560 mm Hg. Then the chamber was sealed hermetically, and O2 consumption by the organ was recorded on a strip chart recorder at a speed of 1 cm/min. Initial and final PO2 levels of medium in the chamber were measured on a Radiometer Blood Gas Analyzer Model ABL-4.

[2] = tested on: ischemically stored hearts; experiment: Oxygen consumption after hypothermic ischemic storage, heart; parameters: species or system rat; conditions: hearts n=4; FDP 1 mg/ml in storage solution; 16 to 20 hours storage
Experimental: as §1

ex vivo stored hearts = experiment: Ex vivo cold ischemic storage and reperfusion of hearts (Langendorf apparatus); parameters: species or system rat
Experimental: Hearts were harvested from ketamine-anesthetized Sprague Dawley rats (350-450 gm body weight). Prior to harvesting the hearts, 17 randomly chosen rats received an intravenous bolus injection of FDP 450 mg/kg (10%). The hearts were removed, the left atria and aorta were attached to a modified Langendorf apparatus within 3 min, and the hearts were perfused ex vivo for 15 min at 37° C. with Krebs-Henseleit solution to which 0.07 mg/ml of FDP had been added. Rats in the control group (n=21) received an equivalent volume saline injection prior to surgery, and the hearts were perfused for 15 min with Krebs-Henseleit solution containing no FDP. Heart rates, systolic and diastolic pressures, cardiac outputs, and coronary blood flow during this period were measured and recorded.
After the 15 minute perfusion period, the control hearts (n=21) were flushed with cardioplegic solution (Isolyte, K^+ 20 mEq/L). The FDP=treated hearts (n=17) were flushed with the same solution containing 1 mg/cc of FDP. The hearts were respectively placed in cold (4° C.) saline solution, with 0.9% NaCl or 0.9% NaCl containing 1 mg/ml FDP, and stored at 4° C. for 4 hours. After the 4 hour storage period was completed, the hearts were reperfused and warmed to 37° C. again. Seven hearts from each group were taken out of the Langendorf apparatus after 15 minutes and analyzed for myocardial ATP content. The remaining hearts (10 in the treatment group, and 14 in the control group) were measured in various ways (heartbeat rates, mean aortic and systolic pressures, and cardiac output) for 2 hours following the commencement of reperfusion.

rat cardiac allograft = experiment: Intra-abdominal heart transplantation, series 2 (FDP alone and with cyclosporine); assay type: in vivo; conditions: FDP pre and perioperative only (350 mg/kg IV, infusion 10 mg/kg IV for 90 min); n=5
Experimental: In a second series of in vivo tests, FDP alone and in conjunction with cyclosporine was tested for its ability to suppress allograft rejection and prolong survival of the transplanted heart. […] Therefore, these tests evaluated FDP in conjunction with sub-optimal doses of CSA.
In these tests, the same procedure as described above was used to transplant hearts into the abdomens of recipient animals. Unlike the earlier tests, the animals also received prophylactic antibiotic treatment following surgery, as well as daily application of Bacitracin ointment of the site of the venous catheter.
The surgical technique used in these tests was exactly the same as described in Example 2, except the animals in this series of tests received prophylactic antibiotic treatment following surgery, and daily application of Bacitracin ointment of the site of the venous catheter.
The animals were divided into the following 6 groups: […]

[3] = tested on: Concanavalin A-stimulated T-lymphocytes; experiment: Thymidine incorporation by Concanavalin A-stimulated T-lymphocytes; assay type: cell-based, rat; conditions: ConA-stimulated
Experimental: The in vitro tests, and their results, are described in detail in Example 1. Briefly, T lymphocytes were obtained from rat spleens. The cells were then stimulated by Concanavalin A (ConA), a mitogen that specifically stimulates T lymphocyte replication, both in control samples and in samples that were also contacted with either FDP or cyclosporine at various concentrations. Cell replication was measured by assaying the uptake of thymidine which had been radiolabelled using tritium, a heavy isotope of hydrogen. Cell viability was measured using a dye, trypan blue; intact and viable cells can exclude trypan blue from their interiors, while damaged or dead cells cannot.
Sprague-Dawley rats (150-200 gm body weight) were euthanized by overdose of ketamine (injected intramuscularly, IM). Their spleens were removed under sterile conditions and placed in a plastic petri dish with Buffered Hanks Solution (BHS). The splenic parenchyma was torn apart with sterile needles and forceps. The solution with the splenic fragments was homogenized with a Teflon pestle in a glass tube. This allowed the cells to be expressed into the solution which was then filtered and placed over Ficoll-Hypaque and centrifuged at 1500 RPM for 20 minutes in order to separate mononuclear cells. The middle layer of cells (containing lymphocytes) was removed and centrifuged at 1000 RPM for 10 min. After removing the supernates, the remaining red blood cells were lysed with 0.83% NH4 Cl solution, and the cells were again centrifuged at 1000 RPM for 2-3 min. The supernate was poured off and the cells were washed twice with BHS and then resuspended in tissue culture media (RPMI-1640 with 10% fetal calf serum). The cells then were adjusted to final concentration of 5×10^6 cells/ml with RPMI-1640 and 10% fetal calf serum.
A tissue culture multi-well plate was used for incubation. All well filling was done under sterile conditions. […] The well volume capacity was 0.35 ml.
Six different dilutions (freshly prepared in sterile water solution from 10% FDP stock solutions) were used--1:10, 1:100, 1:250, 1:500, 1:1000 and 1:10000. […] A few wells were used to measure the stimulation index, and received ConA or RPMI without FDP or Cyclosporine. All combinations were run in triplicate. The wells were labeled and incubated with CO2 at 35° C. for 48 hours.
Each well then received 0.05 ml of tritiated (^3 H) thymidine (1 μCi/0.05 ml). Radiolabelled thymidine is taken up by proliferating lymphocytes, allowing them to be counted using a liquid scintillation counter. After 16 to 20 hours of incubation the samples were harvested onto glass filter paper strips using a multiple automated sample harvester. The paper was allowed to dry 4-5 hours. Paper from each well was placed in scintillation counting vials with 5 ml fluorane (scintillene). […] Significance was assessed by unpaired t-test.

[4] = tested on: ischemically stored livers; experiment: Oxygen consumption after hypothermic ischemic storage, liver; parameters: species or system rat; conditions: livers n=12; FDP 1 mg/ml in storage solution; storage 17.62±0.22 hours at 4° C.; measured at 36.4° C.
Experimental: as §1

[5] = tested on: cardiac allograft (Wistar-Furth donor heart in Lewis rat); experiment: Intra-abdominal heart transplantation, series 1 (graft survival, rejection grade); assay type: in vivo
Description: Since unwanted T cell stimulation is known to be a primary factor in causing allograft rejection, the results of the in vitro studies discussed above, showing that FDP can suppress T cell stimulation, led to a series of in vivo tests using heart transplantations in rats. These tests are described in detail in Example 2. Briefly, laboratory rats from a strain known as Lewis rats were used as recipients, while rats from a different strain known as Wistar-Furth were used as heart donors.
In the recipient animals, the native heart was not cut out and replaced by a new heart. […] This model provides a good test to determine whether the body will reject the foreign tissue, yet it avoids the extraordinary difficulties that would arise if the animal's native heart were cut out.
In the first round of tests, four treatment groups and one control group were established. The control group received no FDP. The four treatment groups were injected intravenously with 350 mg/kg of FDP 15 minutes prior to surgery, at a dosage of 350 mg/kg (i.e., 350 mg of FDP per kilogram of body weight). The treatment animals also received a 90 minute infusion of FDP during the operation, at a rate of 10 mg/kg/min. In addition to these "perioperative FDP" injections, the four treatment groups also received:
The animals were examined daily for viability. […] When the transplanted heart reached a level of non-viability, a lethal dose of pentobarbital was given, and the heart was removed, examined microscopically, and graded for rejection using the Stanford grading scale.
If a transplanted heart stopped beating prior to three days postoperatively, that animal was dropped from the study. Rats that died within five days of the operation for unknown causes were also dropped from the study. These deaths were believed to be secondary to sepsis, rather than caused by tissue rejection. Also, one animal in Group 1 died from a suture fracture; this animal was also dropped from the study.
Male Wistar-Furth rats (WF;RT-1^u) and male Lewis rats (Lew;RT-1^1)were obtained from Harlan Sprague-Dawley Animal Laboratories. Lewis rats weighing (200-224 gm) were used as recipients. WF rats weighing (200-224 gm) were used as donors.
The Lewis rats were anesthetized with a mixture of ketamine (100 mg/kg) and xylocaine (5 mg/kg) by intraperitoneal injection (IP) 1 to 2 days prior to transplantation. At this time, PE-90 tubing was placed in the internal jugular vein and brought out through the posterior aspect of the neck. The rats were placed in individual cages to prevent dislodging of the catheter. No limits were placed on water or rat chow.
The transplantation procedure was a modified version of Ono and Lindsey's microvascular technique for intra-abdominal transplantation. WF rats were anesthetized with pentobarbital (50 mg/kg). The chest and abdomen were shaved and prepped with betadine and then placed on a thermostatically controlled operating platform. […] After three minutes, the sternum and anterior chest were separated from the diaphragm and lateral ribs with heavy scissors. The chest cavity was opened and the IVC was ligated using a 5-0 silk ligature. The aorta was then dissected out and cross clamped at the level of the innominate artery. Three cc of cold cardioplegia solution (4° C.) was injected into the aortic root with a 25 gauge needle. The aorta was divided below the clamp. The pulmonary artery was dissected free and divided at its bifurcation. […] The heart was then removed and placed in iced saline with heparin (2 units/ml).
Lewis rats were then anesthetized in a similar fashion. After shaving and prepping the abdomen, a mid-line incision was made. The IVC and the infrarenal aorta were mobilized together. A curved bulldog was then used to cross clamp the vessels. The anastomosis was sewn between the […] and IVC using a 9-0 Ethicon microsurgical suture. The aorta-aorta anastomosis was then performed in a similar end-side fashion. […]

[6] = Group 1 perioperative FDP, Stanford grading scale

O=C(COP(=O)(O)O)[C@@H](O)[C@H](O)[C@H](O)COP(=O)(O)O [FDP, fructose-1,6-diphosphate]
post-storage O2 consumption [1]: 74.15±4.8 mmHg O2 /min/gm | post-storage O2 consumption [2]: 68.4±3.14 mmHg O2 /min/gm | myocardial ATP content vs control group (ex vivo stored hearts; after 15 min of reperfusion, FIG. 5, p<0.01): higher | hearts still showing a heartbeat (ex vivo stored hearts; after 1 hour and 30 min of reperfusion following 4 h storage at 4° C., n=10, controls 5 of 14): all | post-storage heartbeat rate vs control group (ex vivo stored hearts; after 4 h cold storage, FIG. 1): significantly higher | peak systolic aortic pressures vs control group (ex vivo stored hearts; after 4 h cold storage, FIG. 2): significantly higher | mean pressures vs control group (ex vivo stored hearts; after 4 h cold storage, FIG. 3): significantly higher | cardiac output rates vs control group (ex vivo stored hearts; after 4 h cold storage, FIG. 4): significantly higher | MST ± SEM (cardiac allograft survival) (rat cardiac allograft): 11.4 Days and 11.4 ± 0.74 Days | Thymidine incorporation ([3]; FDP 1:10 dilution of 10% stock): 136 counts per 2 minute period | Thymidine incorporation ([3]; FDP 1:100 dilution of 10% stock): 1175 counts per 2 minute period | Thymidine incorporation ([3]; FDP 1:250 dilution of 10% stock): 24818 counts per 2 minute period | Thymidine incorporation ([3]; FDP 1:500 dilution of 10% stock): 52481 counts per 2 minute period | Thymidine incorporation ([3]; FDP 1:1000 dilution of 10% stock): 62518 counts per 2 minute period | Thymidine incorporation ([3]; FDP 1:10000 dilution of 10% stock, mean of 13 experiments): 89032 counts per 2 minute period | oxygen consumption after ischemic storage [4]: 76.7±4.4 O2 mmHg/min/gm | Mean Survival Time MST ± SE (graft) ([5]; Group 1: perioperative FDP (350 mg/kg IV + 10 mg/kg/min 90 min), no supplemental injections): 13.5 days and 13.5 ± 1.4101 days | Rejection Grades: number of hearts graded Moderate [5, 6]: 1 | Rejection Grades: number of hearts graded Severe/Advanced [5, 6]: 8 | Rejection Grades: number of hearts graded Mild ([5]; Group 1 perioperative FDP, Stanford grading scale, N 11, 1 heart not evaluated): 1 | Mean Survival Time MST ± SE (graft) ([5]; Group 2: perioperative FDP + 350 mg/kg every 12 hours (bid), 350 mg/kg): 8.9 days and 8.9 ± 0.5154 days | Rejection Grades: number of hearts graded Mild ([5]; Group 2 FDP bid, N 8): 1 | Rejection Grades: number of hearts graded Moderate ([5]; Group 2 FDP bid, N 8): 1 | Rejection Grades: number of hearts graded Severe/Advanced ([5]; Group 2 FDP bid, N 8): 6 | Mean Survival Time MST ± SE (graft) ([5]; Group 3: perioperative FDP + 350 mg/kg every 8 hours (tid), 350 mg/kg): 10 days and 10.0 ± 0.5345 days | Rejection Grades: number of hearts graded Moderate ([5]; Group 3 FDP tid, N 8): 1 | Rejection Grades: number of hearts graded Severe/Advanced ([5]; Group 3 FDP tid, N 8): 7 | Mean Survival Time MST ± SE (graft) ([5]; Group 4: perioperative FDP + 350 mg/kg every 6 hours (qid), 350 mg/kg): 9.6 days and 9.4 ± 0.8004 days | Rejection Grades: number of hearts graded Severe/Advanced ([5]; Group 4 FDP qid, N 8): 8 | rejection grades (span in the group) ([5]; Group I perioperative FDP, Stanford grading scale): mild to severe/advanced | rejection grades (span in the group) ([5]; Group II FDP every 12 hours): mild to severe/advanced | rejection grades (span in the group) ([5]; Group III FDP every 8 hours): moderate to severe/advanced | rejection grades (span in the group) ([5]; Group IV FDP every 6 hours): severe/advanced
